Laboratory results: patent publication US20170119907A1, “Targeted Therapeutics” (MEDIVATION TECHNOLOGIES, INC., priority 2014, published 2017)

Columns and labels:
human MSCs [1] = experiment: Viability and proliferation of human MSCs in the presence of compound (Example B2); format: cell-based; details: concentrations of 20 μM or below
[2] = test system: MSCs from sheep bone marrow; experiment: Differentiation of sheep MSCs to chondrocytes in pellet culture (modified Bern Score); format: cell-based; details: for Cell Distance / Matrix Stain / Morphology: score 0-3; for Final Score (Bern Score): score 0-9
Experimental: Compounds of the invention were assessed in an in vitro pellet cell culture model of chondrogenesis.
Conditions tested were: • a. (1) Priming: exposure of cells to TGFβ3 prior to incubation with Compound 4 or Compound 20; • b. (2) Dose: Concentration of Compound 4 or Compound 20 that cells were incubated with prior to pellet culture; and • c. (3) Media: presence or absence of TGFβ3 in the media used for the 3-week pellet culture duration.
A population of cells enriched for MSCs from sheep bone marrow was harvested, cultured and expanded. Cells from passage 3 (P3) were incubated with either chondrogenic differentiation medium for the Priming “+” groups or chondrogenic differentiation medium without TGFβ3 for the Priming “−” groups. Following centrifugation at 400×g for 5 min and gentle removal of the supernatant, cells were re-suspended with the appropriate number of cells in Compound 4 or Compound 20 in 1×PBS, pH 7, at following concentrations: 10 μM, 3.16 μM, 1 μM, and 0.316 μM of Compound 4; or 10 μM and 1 μM of Compound 20. For control conditions, cells were incubated in 1×PBS at pH 7. All treatment groups were then incubated for 30 min in the dark with nutation. Following centrifugation at 400×g for 5 min and gentle removal of the supernatant, cells were re-suspended and washed with 1×PBS at pH 7 and spun at 400×g for 5 min to remove supernatant. Depending on the condition, cells were re-suspended cells in chondrogenic differentiation medium OR in chondrogenic medium without TGFb3. Cells were counted, and approximately 2.5×10^5 cells were plated into polypropylene 96-well plates incubated under standard pellet culture conditions for three weeks. Medium was changed 3× weekly.
Pellets were fixed in 10% formalin for at least 8 hours and then infiltrated with paraffin wax. Sections were then cut at approximately 5 microns and stained using safranin-orange, Fast Green, Haematoxylin-Eosin, and 1% Toluidine Blue.
Histological grading was performed according to a modified Bern Score to assess chondrogenic morphology of the cells and any matrix deposition by the cells according to the following three criteria:
The subcomponents of the Bern Score are additive. Accordingly, the Bern Score presents a maximum total score of 9 representing the best possible score and minimum score of 0 representing no chondrogenesis.
In this Example, the Bern Score for Control pellets is a proxy for chondrogenic capacity of the cell population using a standard pellet culture protocol. […] Pellets that were formed using the 30 minute incubation protocol with only PBS replacing Compound 4 (0 μM Compound 4) are referred to as “PBS pellets.”

[3] = test system: rabbit dorsal femoral condyle explants; experiment: Binding to rabbit dorsal femoral condyle explants (fluorescence staining); details: 100 μM in PBS, 30 min; 530/600 nm; FIGS. 5A, 5B
Experimental: Rabbit dorsal femoral condyle explants were incubated with PBS or 100 μM Compound 4 or Compound 20 in PBS for 30 min. Explants were washed twice in excess PBS. Staining of explants was determined using the 530/600 nm filter set on the Molecular Imaging Gel Logic system.

human MSCs [4] = experiment: Human MSC viability, trypan blue staining; format: cell-based; details: 30 min, concentrations 20 μM or lower, FIG. 3B
Experimental: Cell viability was measured by using trypan blue to stain dead cells. Cells (2×10^5) were incubated with various concentrations of Compound 4 for 30 min, and viable cells were counted and compared to the number of viable cells in an untreated sample. Values for treated cells were normalized to untreated cells.

human MSCs [5] = experiment: Binding to human MSCs (visual inspection of staining); format: cell-based; details: 5 μM or 10 μM, 30 min; FIG. 4A
Experimental: Human MSCs were incubated without Compound 4 or with Compound 4 (5 μM or 10 μM) for 30 min and then washed twice with 1 mL PBS. Samples were visually inspected to determine staining

ARH-77 cells = experiment: Binding of compounds to ARH-77 cells (Example B1a); format: cell-based; details: photomicrographs, FIG. 2A
Raji cells = experiment: Viability of Raji cells treated with compound (Example B2); format: cell-based; details: concentrations of 20 μM or below, FIG. 3C
[6] = Differentiation Medium +, TGFβ3 Priming +, 0.316 μM
[7] = Differentiation Medium +, TGFβ3 Priming +, 1 μM
[8] = Differentiation Medium +, TGFβ3 Priming +, 3.16 μM
[9] = Differentiation Medium +, TGFβ3 Priming +, 10 μM
[10] = Differentiation Medium +, TGFβ3 Priming −, 0.316 μM
[11] = Differentiation Medium +, TGFβ3 Priming −, 1 μM
[12] = Differentiation Medium +, TGFβ3 Priming −, 3.16 μM
[13] = Differentiation Medium +, TGFβ3 Priming −, 10 μM
[14] = Differentiation Medium −, TGFβ3 Priming +, 0.316 μM
[15] = Differentiation Medium −, TGFβ3 Priming +, 1 μM
[16] = Differentiation Medium −, TGFβ3 Priming +, 3.16 μM
[17] = Differentiation Medium −, TGFβ3 Priming +, 10 μM

SMILES: Cc1cc2nc3cc(C)c(NCCCCCCCCNc4cc5c(cc4C)nc4cc(C)c(N)cc4[n+]5-c4ccccc4)cc3[n+](-c3ccccc3)c2cc1N.[Cl-].[Cl-] [Compound 4, 7,7′-(octane-1,8-diylbis(azanediyl))bis(3-amino-2,8-dimethyl-5-phenylphenazin-5-ium) chloride]
- proliferation of human MSCs (human MSCs [1]; FIG. 3A): do not affect
- viability of human MSCs relative to untreated human MSCs (human MSCs [1]; FIG. 3B): do not affect
- Chondrogenic capacity (in words) ([2]; 3.16 μM and differentiation medium): good chondrogenic capacity
- Cell Distance [2, 6]: 3
- Matrix Stain [2, 6]: 3
- Morphology [2, 6]: 3
- Final Score (Bern Score) [2, 6]: 9
- Cell Distance [2, 7]: 2.5
- Matrix Stain [2, 7]: 3
- Morphology [2, 7]: 2
- Final Score (Bern Score) [2, 7]: 7.5
- Cell Distance [2, 8]: 2
- Matrix Stain [2, 8]: 2
- Morphology [2, 8]: 2
- Final Score (Bern Score) [2, 8]: 6
- Cell Distance [2, 9]: 0
- Matrix Stain [2, 9]: 0
- Morphology [2, 9]: 0
- Final Score (Bern Score) [2, 9]: 0
- Cell Distance [2, 10]: 2.5
- Matrix Stain [2, 10]: 3
- Morphology [2, 10]: 2.5
- Final Score (Bern Score) [2, 10]: 8
- Cell Distance [2, 11]: 2
- Matrix Stain [2, 11]: 2.5
- Morphology [2, 11]: 2
- Final Score (Bern Score) [2, 11]: 6.5
- Cell Distance [2, 12]: 2
- Matrix Stain [2, 12]: 2
- Morphology [2, 12]: 2
- Final Score (Bern Score) [2, 12]: 6
- Cell Distance [2, 13]: 0
- Matrix Stain [2, 13]: 0.5
- Morphology [2, 13]: 0
- Final Score (Bern Score) [2, 13]: 0.5
- Cell Distance [2, 14]: 0
- Matrix Stain [2, 14]: 0
- Morphology [2, 14]: 0
- Final Score (Bern Score) [2, 14]: 0
- Cell Distance [2, 15]: 0
- Matrix Stain [2, 15]: 0
- Morphology [2, 15]: 0
- Final Score (Bern Score) [2, 15]: 0
- Cell Distance [2, 16]: 0
- Matrix Stain [2, 16]: 0.5
- Morphology [2, 16]: 0
- Final Score (Bern Score) [2, 16]: 0.5
- Cell Distance [2, 17]: 0
- Matrix Stain [2, 17]: 0
- Morphology [2, 17]: 0
- Final Score (Bern Score) [2, 17]: 0
- Binding to rabbit dorsal femoral condyle explants (fluorescence) [3]: strong fluorescence
- Effect on viability of human MSCs (human MSCs [4]): did not affect the viability
- Binding to human MSCs (visual staining) (human MSCs [5]): binds human MSCs
- binding to ARH-77 cells (ARH-77 cells): binding

SMILES: Cc1cc2nc3cc(C)c(NCCCCCCNC(=O)c4ccc(-c5ccc(C(=O)NCCCCCCNc6cc7c(cc6C)nc6cc(C)c(N)cc6[n+]7-c6ccccc6)cc5)cc4)cc3[n+](-c3ccccc3)c2cc1N.[Cl-].[Cl-] [Compound 20, (3-amino-7-{[6-({4-[4-({6-[(7-amino-5-chloranuide-2,8-dimethyl-5-phenyl-5λ^6,10-phenazin-5-ylium-3-yl)amino]hexyl}carbamoyl)phenyl]phenyl}formamido)hexyl]amino}-2,8-dimethyl-5-phenyl-5λ^6,10-phenazin-5-ylium-5-e)chloranuide]
- viability of Raji cells relative to untreated control Raji cells (Raji cells): do not affect
- Cell Distance [2, 7]: 3
- Matrix Stain [2, 7]: 3
- Morphology [2, 7]: 2.5
- Final Score (Bern Score) [2, 7]: 8.5
- Cell Distance [2, 9]: 2.5
- Matrix Stain [2, 9]: 2.5
- Morphology [2, 9]: 2.5
- Final Score (Bern Score) [2, 9]: 7.5
- Cell Distance [2, 11]: 2.5
- Matrix Stain [2, 11]: 2.5
- Morphology [2, 11]: 2
- Final Score (Bern Score) [2, 11]: 7
- Cell Distance [2, 13]: 2
- Matrix Stain [2, 13]: 2
- Morphology [2, 13]: 2
- Final Score (Bern Score) [2, 13]: 6
- Cell Distance [2, 15]: 0
- Matrix Stain [2, 15]: 0
- Morphology [2, 15]: 0
- Final Score (Bern Score) [2, 15]: 0
- Cell Distance [2, 17]: 0
- Matrix Stain [2, 17]: 0
- Morphology [2, 17]: 0
- Final Score (Bern Score) [2, 17]: 0
- Chondrogenic capacity (in words) ([2]; either concentration tested (10 μM and 1 μM) and differentiation medium): good chondrogenic capacity
- Binding to rabbit dorsal femoral condyle explants (fluorescence) [3]: strong fluorescence
